Patent US7052724B2, “Method of producing active dry yeast” (Suntory Limited, priority 2001, dated 2006)

Test system: recovered yeast (slurry yeast recovered from the beer fermentation step)
Test: Methylene Blue staining ratio (mortality) of yeast before drying or after drying and reconstitution with water
Format: cell-based
Settings: for Elevating the survival ratio of the yeast after reconstitution with water, similar to glycerol: as substitute for glycerol; for Elevating the survival ratio of the dry yeast after reconstitution with water, similar to trehalose: as substitute for trehalose; for Ratio of the dead cells after drying and reconstitution with water: 5% of trehalose
Description: 50 g of a 20% aqueous solution of trehalose was added to 50 g of the recovered yeast and the resultant mixture was stirred at 20° C. for 3 hours to thereby incorporate the trehalose into the yeast cells. Then the yeast having trehalose thus incorporated was filtered under suction on a filter paper No.2 with the use of a Nutsche filter. The obtained yeast was then passed through a 14-mesh sieve and dried in a thermostat at 30° C. for about 20 hours to give a dry yeast. 0.1 g of this dry yeast was suspended and reconstituted in 1 ml of distilled water at room temperature. Then the mortality of the yeast was measured by the Methylene Blue staining method. Since dead cells could not reduce Methylene Blue, the cells stained with Methylene Blue were regarded as dead cells. Thus, the Methylene Blue staining ratio could be referred to as the mortality. […] Thus, trehalose was incorporated as in Example 1 and then the yeast was dried. […]
To 50 g of the slurry yeast recovered from the beer fermentation step, 50 g of an aqueous trehalose solution (concentration: about 20%) was added. After stirring at 20° C. for 3 hours, the yeast was centrifuged, suspended in 50 g portions of 300 g/L aqueous solutions of various sugar alcohols and maintained at room temperature for 15 minutes. Subsequently, the yeast was filtered under suction on a filter paper No.2 as in Example 2. The obtained yeast was passed through a 14-mesh sieve and dried in a thermostat at 5° C. for about 20 hours. The dry yeast thus obtained was reconstituted with water as in Example 2 and stained with Methylene Blue to measure the mortality of the yeast.
To 50 g of the slurry yeast recovered from the beer fermentation step, 50 g of an aqueous trehalose solution (concentration: about 20%) was added. After stirring at 20° C. for 3 hours, the yeast was centrifuged, suspended in 50 g of an about 300 g/L aqueous glycerol solution and maintained at room temperature for 15 minutes. Subsequently, the yeast was filtered under suction on a filter paper No.2 as in Example 2. The obtained yeast was passed through a 14-mesh sieve and dried in a thermostat at 5° C. to 30° C. for about 20 hours. Alternatively, the yeast was dried by using a fluidized bed dryer at 30° C. for 1 hour. Each of the dry yeast thus obtained was rehydrated with water as in Example 2 and stained with Methylene Blue to measure the mortality of the yeast.

[1] = sugar/sugar alcohol (about 20% solution, 20° C., 3 hours) as substitute for trehalose, then 300 g/L glycerol, dried at 5° C.
[2] = glycerol 100 g/L after trehalose-treatment
[3] = glycerol 150 g/L after trehalose-treatment
[4] = glycerol 200 g/L after trehalose-treatment
[5] = glycerol 300 g/L after trehalose-treatment
[6] = trehalose-treatment, then 300 g/L sugar alcohol as substitute for glycerol, 15 minutes, dried at 5° C.
[7] = trehalose-treatment as in Example 2, after rehydration with water

Structure (SMILES): O=C[C@H](O)[C@@H](O)[C@H](O[C@@H]1O[C@H](CO)[C@@H](O)[C@H](O)[C@H]1O)[C@H](O)CO [Cellobiose]
- Methylene Blue-staining ratio (%) after reconstitution with water [1]: 54.8%

Structure (SMILES): O=C(CO)[C@@H](O)[C@H](O)[C@H](O)CO [Fructose]
- Methylene Blue-staining ratio (%) after reconstitution with water [1]: 51.1%

Structure (SMILES): O=C[C@H](O)[C@@H](O)[C@@H](O)[C@H](O)CO [Galactose]
- Methylene Blue-staining ratio (%) after reconstitution with water [1]: 40.6%

Structure (SMILES): OCC(O)CO [Glycerol, glycerol]
- Methylene Blue-staining ratio, after reconstitution with water after drying and storing at 25° C. for 8 days [2]: 59.8%
- Methylene Blue-staining ratio, before drying [2]: 20.8%
- Methylene Blue-staining ratio, immediately after drying/reconstitution with water (glycerol 100 g/L after trehalose-treatment, dried at 5° C.): 30.8%
- Methylene Blue-staining ratio, after reconstitution with water after drying and storing at 25° C. for 8 days [3]: 62.3%
- Methylene Blue-staining ratio, before drying [3]: 66.7%
- Methylene Blue-staining ratio, immediately after drying/reconstitution with water (glycerol 150 g/L after trehalose-treatment, dried at 5° C.): 23.7%
- Methylene Blue-staining ratio, after reconstitution with water after drying and storing at 25° C. for 8 days [4]: 40.2%
- Methylene Blue-staining ratio, before drying [4]: 97.8%
- Methylene Blue-staining ratio, immediately after drying/reconstitution with water (glycerol 200 g/L after trehalose-treatment, dried at 5° C.): 26.3%
- Methylene Blue-staining ratio, after reconstitution with water after drying and storing at 25° C. for 8 days [5]: 48.5%
- Methylene Blue-staining ratio, before drying [5]: 99.6%
- Methylene Blue-staining ratio, immediately after drying/reconstitution with water (glycerol 300 g/L after trehalose-treatment, dried at 5° C.): 26.2%
- Methylene Blue-staining ratio, before drying (trehalose-treatment then 300 g/L aqueous glycerol, 15 minutes): 95.8%
- Methylene Blue-staining ratio, after drying/reconstitution with water (trehalose-treatment then 300 g/L aqueous glycerol, 15 minutes, dried at 5° C.): 18.3%
- Methylene Blue-staining ratio (%) after reconstitution with water [6]: 24.4%

Structure (SMILES): OC[C@H]1O[C@@H](O[C@H]2[C@H](O)[C@@H](O)C(O)O[C@@H]2CO)[C@H](O)[C@@H](O)[C@H]1O (some centres unmarked) [Lactose]
- Methylene Blue-staining ratio (%) after reconstitution with water [1]: 38.6%

Structure (SMILES): OC[C@@H](O)[C@@H](O[C@H]1O[C@H](CO)[C@@H](O)[C@H](O)[C@H]1O)[C@H](O)[C@@H](O)CO [Maltitol]
- Elevating the survival ratio of the yeast after reconstitution with water, similar to glycerol: effective
- Elevating the survival ratio of the dry yeast after reconstitution with water, similar to trehalose: effective
- Methylene Blue-staining ratio (%) after reconstitution with water [1]: 29.7%
- Methylene Blue-staining ratio (%) after reconstitution with water [6]: 30.1%

Structure (SMILES): OC[C@H]1O[C@H](O[C@H]2[C@H](O)[C@@H](O)[C@H](O)O[C@@H]2CO)[C@H](O)[C@@H](O)[C@@H]1O [Maltose]
- Methylene Blue-staining ratio (%) after reconstitution with water [1]: 56.4%

Structure (SMILES): OC[C@@H](O)[C@@H](O)[C@H](O)[C@H](O)CO [Mannitol]
- Elevating the survival ratio of the dry yeast after reconstitution with water, similar to trehalose: effective
- Methylene Blue-staining ratio (%) after reconstitution with water [1]: 37.1%
- Methylene Blue-staining ratio (%) after reconstitution with water [6]: 47.5%

Structure (SMILES): OC[C@@H](O)[C@@H](O)[C@H](O)[C@@H](O)CO [Sorbitol]
- Methylene Blue-staining ratio (%) after reconstitution with water [1]: 41.8%
- Methylene Blue-staining ratio (%) after reconstitution with water [6]: 41.2%

Structure (SMILES): OC[C@H]1O[C@@](CO)(O[C@H]2O[C@H](CO)[C@@H](O)[C@H](O)[C@H]2O)[C@@H](O)[C@@H]1O [Sucrose]
- Methylene Blue-staining ratio (%) after reconstitution with water [1]: 51.9%

Structure (SMILES): OC[C@H]1O[C@H](O[C@H]2O[C@H](CO)[C@@H](O)[C@H](O)[C@H]2O)[C@H](O)[C@@H](O)[C@@H]1O [Trehalose, trehalose]
- Ratio of the dead cells after drying and reconstitution with water (10° C., 1 or 3 hours): about 60%
- Ratio of the dead cells after drying and reconstitution with water (10° C., 21 hours): about 90%
- Methylene Blue-staining ratio (before drying, treated with 5% trehalose, 10° C., 1 Hrs): 8.97
- Methylene Blue-staining ratio (before drying, treated with 5% trehalose, 10° C., 3 Hrs): 8.45
- Methylene Blue-staining ratio (before drying, treated with 5% trehalose, 10° C., 21 Hrs): 11.88
- Methylene Blue-staining ratio (before drying, treated with 5% trehalose, 20° C., 1 Hrs): 6.58
- Methylene Blue-staining ratio (before drying, treated with 5% trehalose, 20° C., 3 Hrs): 7.51
- Methylene Blue-staining ratio (before drying, treated with 5% trehalose, 20° C., 21 Hrs): 16.44
- Methylene Blue-staining ratio (before drying, treated with 10% trehalose, 10° C., 1 Hrs): 6.36
- Methylene Blue-staining ratio (before drying, treated with 10% trehalose, 10° C., 3 Hrs): 8.67
- Methylene Blue-staining ratio (before drying, treated with 10% trehalose, 10° C., 21 Hrs): 17.68
- Methylene Blue-staining ratio (before drying, treated with 10% trehalose, 20° C., 1 Hrs): 8.26
- Methylene Blue-staining ratio (before drying, treated with 10% trehalose, 20° C., 3 Hrs): 9.24
- Methylene Blue-staining ratio (before drying, treated with 10% trehalose, 20° C., 21 Hrs): 8.90
- Methylene Blue-staining ratio (immediately after reconstitution with water (dried at 30° C.), 5% trehalose, 10° C., 1 Hrs): 63.72
- Methylene Blue-staining ratio (immediately after reconstitution with water (dried at 30° C.), 5% trehalose, 10° C., 3 Hrs): 63.40
- Methylene Blue-staining ratio (immediately after reconstitution with water (dried at 30° C.), 5% trehalose, 10° C., 21 Hrs): 90.11
- Methylene Blue-staining ratio (immediately after reconstitution with water (dried at 30° C.), 5% trehalose, 20° C., 1 Hrs): 64.95
- Methylene Blue-staining ratio (immediately after reconstitution with water (dried at 30° C.), 5% trehalose, 20° C., 3 Hrs): 84.17
- Methylene Blue-staining ratio (immediately after reconstitution with water (dried at 30° C.), 5% trehalose, 20° C., 21 Hrs): 92.47
- Methylene Blue-staining ratio (immediately after reconstitution with water (dried at 30° C.), 10% trehalose, 10° C., 1 Hrs): 69.51
- Methylene Blue-staining ratio (immediately after reconstitution with water (dried at 30° C.), 10% trehalose, 10° C., 3 Hrs): 64.95
- Methylene Blue-staining ratio (immediately after reconstitution with water (dried at 30° C.), 10% trehalose, 10° C., 21 Hrs): 79.33
- Methylene Blue-staining ratio (immediately after reconstitution with water (dried at 30° C.), 10% trehalose, 20° C., 1 Hrs): 62.15
- Methylene Blue-staining ratio (immediately after reconstitution with water (dried at 30° C.), 10% trehalose, 20° C., 3 Hrs): 62.04
- Methylene Blue-staining ratio (immediately after reconstitution with water (dried at 30° C.), 10% trehalose, 20° C., 21 Hrs): 87.43
- Methylene Blue-staining ratio (%) after reconstitution with water [1]: 32.2%
- Mortality (%) after drying at 30° C. [7]: 73.4%
- Mortality (%) after drying at 50° C. [7]: 58.0%

Structure (SMILES): OC[C@@H](O)[C@H](O)[C@@H](O)CO [Xylitol]
- Elevating the survival ratio of the yeast after reconstitution with water, similar to glycerol: effective
- Methylene Blue-staining ratio (%) after reconstitution with water [1]: 41.6%
- Methylene Blue-staining ratio (%) after reconstitution with water [6]: 30.4%

Structure (SMILES): OC1OC[C@@H](O[C@@H]2OC[C@@H](O)[C@H](O)[C@H]2O)[C@H](O)[C@H]1O (some centres unmarked) [Xylobiose]
- Methylene Blue-staining ratio (%) after reconstitution with water [1]: 46.5%

Structure (SMILES): O=C[C@H](O)[C@@H](O)[C@H](O)CO [Xylose]
- Elevating the survival ratio of the dry yeast after reconstitution with water, similar to trehalose: effective
- Methylene Blue-staining ratio (%) after reconstitution with water [1]: 37.7%
